According to patent publication US10016343B2, “Solid stick antiperspirant compositions” (The Procter & Gamble Company, priority 2013, dated 2018):

Assay: Hygroscopicity (equilibrium moisture pick up) of antiperspirant active
Format: physicochemical
Settings: 86% RH, 20° C., 5 days
Procedure: One way to evaluate the hygroscopic nature of an antiperspirant active is to determine the equilibrium moisture pick up of the active after 5 days in a controlled relative humidity environment. Specific humidity chambers can be created placing saturated salt solutions in desiccators at a specific temperature. Different salts are used to create different humidities, for example potassium chloride can be used to make an 86% relative humidity (RH) environment at 20° C. In general there is an increase in moisture pick up as humidity is increased for the antiperspirant actives shown, however there are clear differences in slope and amount of moisture pick up at high humidity. Materials with higher slope and larger increases at high humidity (i.e. 86% RH) are considered to be more hygroscopic. The aluminum zirconium trichlorohydrate active (metal to chloride ratio=1.6) from Inventive Example 1 is the least hygroscopic (28% moisture pick up at 86% RH) with the aluminum zirconium tetrachlorohydrate active (metal to chloride ratio=1.2) being substantially more hygroscopic (40% moisture pick up at 86% RH). […] This may explain the substantial difference observed in the amount of sweat measured between Inventive Examples 1 and 2. […]

| Substance | moisture pick up (hygroscopicity) |
| --- | --- |
| aluminum zirconium tetrachlorohydrate | 40% |
| aluminum zirconium trichlorohydrate | 28% |
